Experiments:
[1] = tested on: rat experimental autoimmune neuritis (EAN) model; test: Mechanical allodynia (von Frey test) in rat EAN model; type: in vivo; details: day 14, 3 hours after administration, vs vehicle group
Method: EAN model rats were prepared in a manner similar to Example 9. Further, a pseudo-induction animal was prepared by administering physiological saline (Otsuka Pharmaceutical Factory, Inc.) instead of a peptide solution for administration. The day of administration of the peptide solution for administration or physiological saline was designated as day 0 after induction of pathological conditions.
On day 14 after induction of pathological conditions, compound 1 (5 or 10 mg/kg) or a solvent thereof (water for injection) was orally administered to rats. Groups were composed of 4 groups: a pseudo-induction and solvent administration group (sham group); a pathological condition-induced and solvent administration group (vehicle group); a pathological condition-induced and compound 1 (5 mg/kg) administration group (compound 1 (5 mg/kg) group); and a pathological condition-induced and compound 1 (10 mg/kg) administration group (compound 1 (10 mg/kg) administration group).
Beneficial effects on mechanical allodynia were evaluated in a manner similar to Example 5, and this evaluation was performed at 3 hours after administration of compound 1 on day 14 after induction of pathological conditions.

[2] = tested on: fetal rat dorsal root ganglion-derived established neuronal cell line ND15; test: Protective effect on cisplatin-induced cell damage (alamarBlue cell viability), simultaneous treatment; type: cell-based; details: ND15 cells, cisplatin 50 μM 4 hours, simultaneous treatment with compound 1 at 0.5, 5 or 50 μM
Method: A fetal rat dorsal root ganglion-derived established neuronal cell line ND15 was cultured in 10% FBS-containing DMEM. On the next day, the cells were cultured in 10% FBS-containing DMEM containing EC23 (10 μM, Reinner) for 8 days, for differentiation into neurons.
The medium was exchanged with DMEM/F12 medium containing cisplatin (final concentration of 50 μM) followed by 4 hours of culture, thereby inducing cell injury. Compound 1 was contained in the medium (final concentration of 0.5, 5 or 50 μM) for treatment, in a manner similar to that for cisplatin. Groups were composed of 6 groups: an untreated group, a 50 μM compound 1 treatment group (the group treated with 50 μM compound 1), a cisplatin treatment group, a cisplatin and 0.5 μM compound 1 treatment group (the group treated with cisplatin and 0.5 μM compound 1), a cisplatin and 5 μM compound 1 treatment group, and a cisplatin and 50 μM compound 1 treatment group.
For measurement of cell viability, the medium was exchanged with DMEM/F12 medium containing alamarBlue (Invitrogen), followed by 2 hours of culture, and then the absorbance at wavelength of 570 nm and the absorbance at wavelength of 595 nm were measured. Cell viability was calculated using the ratio of the absorbance at wavelength of 570 nm to the absorbance at wavelength of 595 nm and the untreated group designated as 100%.

[3] = tested on: rat streptozotocin-induced diabetes model; test: Nerve conduction velocity in rat streptozotocin-induced diabetes model; type: in vivo; details: 10 mg/kg oral twice a day, days 14 to 28 after induction, vs vehicle group
Method: Streptozotocin (50 mg/kg, Sigma-Aldrich) was administered intravenously to SD rats (6 weeks old, male; CHARLES RIVER LABORATORIES JAPAN, INC.) via the tail vein, thereby preparing the streptozotocin-induced diabetes model. Streptozotocin was dissolved in a citrate buffer to prepare a 25 mg/mL solution, and then administered. A no pathological condition-induced animal was prepared by administering no streptozotocin solution. The day of initial administration was designated as day 1 after induction of pathological conditions.
On days 14 to 28 after induction of pathological conditions, a solution containing compound 1 (3 or 10 mg/kg) or a solvent thereof (water for injection) was orally administered to rats twice a day. […]
Nerve conduction velocity was measured within 3 days from the next day of the final administration. […] A-B stimulation and B-C stimulation were designated as distal stimulation and proximal stimulation, respectively, and then the transmission time of stimulation was analyzed on the basis of each lead-out waveform obtained from the electrode at the footpad. Nerve conduction velocity was calculated on the basis of a difference in transmission time between the distal stimulation and the proximal stimulation and the distance between the electrodes.

[4] = tested on: rat oxaliplatin-induced peripheral neuropathy model; test: Mechanical allodynia (von Frey test) in rat oxaliplatin-induced peripheral neuropathy model; type: in vivo; details: day 18 after induction, vs vehicle group
Method: Oxaliplatin (4 mg/kg, Elplat I.V. infusion solution […]; Yakult) was administered to SD rats (7 weeks old, male; CHARLES RIVER LABORATORIES JAPAN, INC.) in a cycle of 1 week (intraperitoneally administered twice, two consecutive days per week) for 2 or 3 weeks, thereby preparing an oxaliplatin-induced peripheral neuropathy model. As a control (pseudo-induction), a 5% glucose solution (Otsuka Pharmaceutical Factory, Inc.) was administered. The initial day of administration was designated as day 0 after induction of pathological conditions. […]
Beneficial effects on mechanical allodynia were evaluated before induction of pathological conditions and on day 18 after induction of pathological conditions (before the 1st administration of compound 1). Beneficial effects on mechanical allodynia were evaluated by von Frey test. The test method was performed according to the method described in the known literature (Chaplan et al. Journal of Neuroscience Methods, 1994, Vol. 53, p. 55-63) using von Frey filaments (North Coast Medical) so that 50% response threshold was calculated.

## CN(C)C1CCN(C(=O)C[C@H](O)c2nccn2C)CC1 [Compound 1, (S)-1-(4-(dimethylamino)piperidin-1-yl)-3-hydroxy-3-(1-methyl-1H-imidazol-2-yl)propan-1-one]
[1]; 5 mg/kg oral single dose
  50% response threshold in von Frey test (mechanical allodynia): Significant increases in 50% response threshold
[1]; 10 mg/kg oral single dose
  50% response threshold in von Frey test (mechanical allodynia): Significant increases in 50% response threshold
[2]
  cell viability (decrease caused by cisplatin): suppressed decrease
[3]
  nerve conduction velocity: Significant increases in nerve conduction velocity
[4]; 3 mg/kg oral twice a day
  50% response threshold in von Frey test (mechanical allodynia): significant increase in 50% response threshold
[4]; 10 mg/kg oral twice a day
  50% response threshold in von Frey test (mechanical allodynia): significant increase in 50% response threshold

From patent US20250367171A1, “THERAPEUTIC OR PROPHYLACTIC AGENT FOR PERIPHERAL NEUROPATHIES” (Toray Industries, Inc., priority 2017, published 2025)
